Measured values taken from PubChem BioAssay (NCI).
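How tested: cells in 96-well plates exposed to compound for 48 hours at five concentrations. TGI: total growth inhibition.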

Tested on: BT-549 breast
Assay: DTP human tumour cell line panel, 48 h

SMILES	TGI [µM]
C(/C=C/Nc1ccc(Oc2ccccc2)cc1)=Nc1ccc(Oc2ccccc2)cc1	29.3
Nc1nc(-[n+]2ccc(-c3ccncc3)cc2)nc(Cl)c1Cl	> 100
C[C@@H](c1ccccc1)n1c(N)c(C#N)c2ccc([N+](=O)[O-])cc2c1=O	30
CC1(C)OC(=O)N(c2ccccc2)C12C=Cc1cc([N+](=O)[O-])ccc1O2 (configuration not stated)	> 100
O=C1CC(c2cccc([N+](=O)[O-])c2)C2(C(=O)NC(=O)NC2=O)C(c2cccc([N+](=O)[O-])c2)C1 (configuration not stated)	> 100
Nc1nc(-c2ccccc2)cc(-c2ccc(OCc3ccccc3)cc2O)n1	> 100
CCCc1c(O)nc(Nc2nc3ccccc3[nH]2)[nH]c1=O	> 100
COC1=C(OC)C(=O)C(Cc2c(C)nc3sccn23)=C(C)C1=O	31
CCOC(=O)Cc1nc2cc(F)c(F)cc2[nH]c1=O	> 100
CCOc1ncn(-c2ccc(NC(=S)NC3OC(CO)C(O)C(O)C3O)cc2)n1 (configuration not stated)	> 100
Cn1c([C@H](C#N)c2ncccc2[N+](=O)[O-])nc2ccccc21	> 100
COCc1nc2c(OC)c(-c3nc4nc(N5CCN(C)CC5)ccc4[nH]3)cc(OC)c2n1C	> 100
O=C(c1ccco1)N(C(=S)OCCOc1ccccc1)c1ccccc1	43.5
N#C[C@@H](c1ccccn1)c1ncccc1[N+](=O)[O-]	> 100
COC(=O)C1=CS/C(=C2\S[C@@H]3[C@H](S2)[C@H]2C=C[C@@H]3C2)S1	> 100
CC(=O)Oc1ccc2cc(-c3ccccc3OC(C)=O)c(=O)oc2c1	> 100
CN(C(=O)Cc1cccc(N=C=S)c1)[C@H]1CCCC[C@@H]1N1CCCC1	23.8
O=C(NC(Cc1ccccc1)(Cc1ccc(O)cn1)C(=O)O)c1ccccc1 (configuration not stated)	> 100
O=C1c2ccsc2C(=O)c2sc(CO)cc21	0.0352
N#C/C(=C/NC(N)=S)C(N)=O	> 100
O=c1c2ccccc2nc(Cc2nc(-c3ccc(Cl)cc3)cs2)n1-c1ccc(Cl)cc1	> 100
CCN(CC)CCSc1c2cc(OC)ccc2nc2ccc(OC)cc12	21
CCOC(=O)C1C(=O)CC1(C)C (configuration not stated)	> 10

Tested on: HCT-116 colon
Assay: DTP human tumour cell line panel, 48 h

SMILES	TGI [µM]
C(/C=C/Nc1ccc(Oc2ccccc2)cc1)=Nc1ccc(Oc2ccccc2)cc1	31.2
Nc1nc(-[n+]2ccc(-c3ccncc3)cc2)nc(Cl)c1Cl	> 100
C[C@@H](c1ccccc1)n1c(N)c(C#N)c2ccc([N+](=O)[O-])cc2c1=O	28.8
CC1(C)OC(=O)N(c2ccccc2)C12C=Cc1cc([N+](=O)[O-])ccc1O2 (configuration not stated)	> 100
O=C1CC(c2cccc([N+](=O)[O-])c2)C2(C(=O)NC(=O)NC2=O)C(c2cccc([N+](=O)[O-])c2)C1 (configuration not stated)	42.8
Nc1nc(-c2ccccc2)cc(-c2ccc(OCc3ccccc3)cc2O)n1	> 100
CCCc1c(O)nc(Nc2nc3ccccc3[nH]2)[nH]c1=O	> 100
COC1=C(OC)C(=O)C(Cc2c(C)nc3sccn23)=C(C)C1=O	64.2
CCOC(=O)Cc1nc2cc(F)c(F)cc2[nH]c1=O	> 100
CCOc1ncn(-c2ccc(NC(=S)NC3OC(CO)C(O)C(O)C3O)cc2)n1 (configuration not stated)	> 100
Cn1c([C@H](C#N)c2ncccc2[N+](=O)[O-])nc2ccccc21	> 100
COCc1nc2c(OC)c(-c3nc4nc(N5CCN(C)CC5)ccc4[nH]3)cc(OC)c2n1C	> 100
O=C(c1ccco1)N(C(=S)OCCOc1ccccc1)c1ccccc1	32.5
N#C[C@@H](c1ccccn1)c1ncccc1[N+](=O)[O-]	> 100
COC(=O)C1=CS/C(=C2\S[C@@H]3[C@H](S2)[C@H]2C=C[C@@H]3C2)S1	> 100
CC(=O)Oc1ccc2cc(-c3ccccc3OC(C)=O)c(=O)oc2c1	> 100
CC(CC[C@@]1(C)C(=O)CCC2O[C@]21C)[C@H]1C[C@@H](c2ccoc2)OC1=O (some centres not stated)	38.4
CN(C(=O)Cc1cccc(N=C=S)c1)[C@H]1CCCC[C@@H]1N1CCCC1	26
O=C(NC(Cc1ccccc1)(Cc1ccc(O)cn1)C(=O)O)c1ccccc1 (configuration not stated)	> 100
O=C1c2ccsc2C(=O)c2sc(CO)cc21	0.279
N#C/C(=C/NC(N)=S)C(N)=O	> 100
O=C(c1cccs1)N1CCc2ccccc2C1	> 100
O=c1c2ccccc2nc(Cc2nc(-c3ccc(Cl)cc3)cs2)n1-c1ccc(Cl)cc1	> 100
CCN(CC)CCSc1c2cc(OC)ccc2nc2ccc(OC)cc12	3.42
CCOC(=O)c1ccc(NCc2ccc3oc(=O)c(-c4ccccc4)nc3c2)cc1	80.3
CCOC(=O)C1C(=O)CC1(C)C (configuration not stated)	> 10

Tested on: IGROV1 ovarian
Assay: DTP human tumour cell line panel, 48 h

SMILES	TGI [µM]
C(/C=C/Nc1ccc(Oc2ccccc2)cc1)=Nc1ccc(Oc2ccccc2)cc1	33
Nc1nc(-[n+]2ccc(-c3ccncc3)cc2)nc(Cl)c1Cl	33.3
CC1(C)OC(=O)N(c2ccccc2)C12C=Cc1cc([N+](=O)[O-])ccc1O2 (configuration not stated)	> 100
O=C1CC(c2cccc([N+](=O)[O-])c2)C2(C(=O)NC(=O)NC2=O)C(c2cccc([N+](=O)[O-])c2)C1 (configuration not stated)	> 100
Nc1nc(-c2ccccc2)cc(-c2ccc(OCc3ccccc3)cc2O)n1	> 100
CCCc1c(O)nc(Nc2nc3ccccc3[nH]2)[nH]c1=O	> 100
COC1=C(OC)C(=O)C(Cc2c(C)nc3sccn23)=C(C)C1=O	40.9
CCOc1ncn(-c2ccc(NC(=S)NC3OC(CO)C(O)C(O)C3O)cc2)n1 (configuration not stated)	> 100
